Results published in patent US11396497B2, “Proteasome inhibitors” (New Mexico Tech University Research Park Corporation, priority 2018, dated 2022).
Where two headings read alike, the source gives them in different places.

Experiments:
MCF7 cells = assay: MTT assay cytotoxicity MCF7; details: Homo sapiens
Experimental: (§4) The cells were incubated at 37° C. in a humidified atmosphere with 5% CO2.
(§5) 100 μL of cells were added to each well of a 96 well microtiter plate at a concentration of 4×10^4 cells/mL and incubated overnight to allow proper adhesion. (RPMI 8226 cells were plated at 4×10^5 cells/mL). The cells were treated with the panel of test compounds at a series of concentrations, along with vehicle control DMSO and untreated cells as controls. After 48 h incubation, 20 μL of MTT reagent (3-(4,5-dimethylthiazol-2-yl)-2,5-diphenyltetrazolium bromide) in PBS (5 mg/mL) was added to each well of the plates. The plate was incubated for 2 h at 37° C. For adherent cell lines, the media was removed from each well of the plate and the resulting formazan crystals dissolved in 100 μL of DMSO. For RPMI 8226 cells, 200 ul of DMF/SDS mix (50% DMF. 10% w/v SDS pH<4) was used to solubilize the formazan crystals. Optical density (OD) at 490 nm was measured using a microplate reader. Cells treated with 1 μM phenyl arsine oxide (PAO) served as a positive cell-killing control. Technical replicates of these assays were performed in biological quadruplicate, and the three best values were used for analysis in order to eliminate outliers. Data presented are the average IC50 value calculated from at least 3 technical replicates with the corresponding standard deviation.

[1] = target: T1, chymotrypsin-like activity of the 26S proteasome (Homo sapiens, UniProt P28074); assay: Proteasome assay, chymotrypsin-like (ChT-L) activity, Suc-LLVY-AMC, Jurkat cell lysate; assay type: biochemical; details: ± S.D., read-out: Proteasome Inhibition ChT-like IC50
T1 construct: endogenous in cells; host or cells: Jurkat (ATCC TIB-152, E6-1 clone) cell lysate
T1 sequence (P28074 60-263): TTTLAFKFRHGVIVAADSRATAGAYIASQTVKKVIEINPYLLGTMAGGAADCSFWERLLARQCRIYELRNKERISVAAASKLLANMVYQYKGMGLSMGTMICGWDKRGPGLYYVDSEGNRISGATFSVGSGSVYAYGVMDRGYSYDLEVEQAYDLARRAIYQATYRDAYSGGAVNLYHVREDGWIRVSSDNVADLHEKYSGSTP
Experimental: (§1) The lysate was stored at −80° C. until the sample was used for the proteasome assay.
(§2) The compounds were diluted with lysis buffer; 10 μL of the compound-containing solution was added to the test wells at ten times the final concentration. […] The results are reported as the average of at least 3 technical replicates of IC50 values for proteasome inhibition.

[2] = target: T2, ChT-L activity of 26S proteasomes in intact MCF-7 cells (Homo sapiens, UniProt P28074); assay: Cell infiltration of PIs: proteasome inhibition in intact MCF7 cells; assay type: cell-based; details: intact versus lysed MCF-7 cells, 1 h
T2 construct: endogenous in cells; host or cells: MCF7 cells (treated intact, then lysed)
T2 sequence (P28074 60-263): T1 sequence (P28074 60-263)
Experimental: 100 μL MCF7 cells at a concentration of 500,000 cells/mL were added to a 96 well microtiter plate and incubated overnight at 37° C. and 5% CO2 to allow cells to adhere at 100% confluency. The cells were treated and then incubated for at 37° C. and 5% CO2 for 1 hour as a standard time to allow for drug infiltration. […] The plate was rocked on ice for 1 hr and then 90 μL of cell lysate was transferred to a black 96 well microtiter plate. 10 μL of lysis buffer was added to the top of all wells containing treated cells and one set of control wells. 10 μL of 1 mM of compound 8 was added to the second set of control wells as a positive control for proteasome inhibition. The plate was then incubated at 37° C. for 15 minutes to allow for control drug binding. Chymotrypsin-like activity was then measured by adding 10 μL of 100 μM Suc-LLVY-AMC in lysis buffer to each well and then incubating for 1 h at 37° C. […] Standard deviation for cell infiltration was calculated by propagating the error from the two IC50 values.
The difference between proteasome inhibition within intact versus lysed cells was evaluated as a representative measure of PIs ability to infiltrate cells and access intracellular proteasomes. […] Assays were performed in biological triplicate, and the data points are reported with the corresponding standard deviations. […]

RPMI 8226 cells = assay: MTT assay cytotoxicity RPMI 8226; details: Homo sapiens
Experimental: as §4, §5

MDA-MB-231 cells = assay: MTT assay cytotoxicity MDA-MB-231; details: Homo sapiens
[3] = target: T3, trypsin-like activity of the 26S proteasome (Homo sapiens, UniProt Q99436); assay: Proteasome assay, trypsin-like (T-L) activity, SUC-RLR-AMC, Jurkat cell lysate; assay type: biochemical
T3 construct: endogenous in cells; host or cells: Jurkat (ATCC TIB-152, E6-1 clone) cell lysate
T3 sequence (Q99436 44-277): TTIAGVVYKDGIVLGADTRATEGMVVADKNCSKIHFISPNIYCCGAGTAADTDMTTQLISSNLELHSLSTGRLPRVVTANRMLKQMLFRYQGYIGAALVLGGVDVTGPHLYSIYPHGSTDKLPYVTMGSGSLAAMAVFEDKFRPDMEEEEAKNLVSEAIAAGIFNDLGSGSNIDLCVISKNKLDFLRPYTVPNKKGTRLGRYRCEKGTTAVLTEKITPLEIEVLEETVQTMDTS
Experimental: as §1, §2

[4] = system: cancer cells (MCF7, MDA-MB-231, RPMI 8226); assay: MTT cytotoxicity, cell line not given
[5] = target: T4, yeast proteasome yβ5 subunit (Saccharomyces cerevisiae, UniProt P23724+P30656); assay: Subunit selectivity, purified yeast proteasome yβ5; assay type: biochemical
T4 construct: measured using 8 μg/mL of purified yCP or iCP
Experimental: as §2
(§3) Values and standard deviations were calculated from an assay performed in biological triplicate.

[6] = target: T5, immunoproteasome iβ5 subunit (Homo sapiens, UniProt P20618+P28062); assay: Subunit selectivity, purified immunoproteasome iβ5; assay type: biochemical; details: 8 μg/mL purified iCP; ± SD; read-out: iβ5 IC50
T5 construct: purchased Enzo Life Sciences
Experimental: as §2, §3

[7] = target: T6, yeast proteasome yβ2 subunit (Saccharomyces cerevisiae, UniProt P25043+P25451); assay: Subunit selectivity, purified yeast proteasome yβ2; assay type: biochemical
T6 construct: measured using 8 μg/mL of purified yCP or iCP
Experimental: as §2, §3

[8] = target: T7, yeast proteasome yβ1 subunit (Saccharomyces cerevisiae, UniProt P25043+P38624); assay: Subunit selectivity, purified yeast proteasome yβ1; assay type: biochemical
T7 construct: measured using 8 μg/mL of purified yCP or iCP
Experimental: as §2, §3

[9] = MCF7, 48 h, read-out: Cytotoxicity MCF7 IC50
[10] = RPMI-8226, 48 h, read-out: Cytotoxicity RPMI 8226 IC50
[11] = MDA-MB-231, 48 h, read-out: Cytotoxicity MDA-MB-231 IC50

Row | Structure (SMILES) | IC50 (MCF7 cells; [9]) [nM] | IC50 ([1]; Table 2, P1 analogues) [nM] | cellular infiltration / ability to inhibit intracellular proteasomes (in words) [2] | IC50 (RPMI 8226 cells; [10]) [nM] | IC50 (MDA-MB-231 cells; [11]) [nM] | IC50 ([3]; Table 2, P1 analogues, ± S.D., read-out: Proteasome Inhibition T-L-like IC50) [nM] | IC50 ([1]; Table 3, P2/P3 analogues) [nM] | concentration up to which complete cytotoxicity was not achieved [4] [µM] | IC50 [3] [nM] | IC50 (MCF7 cells; MCF7, read-out: Cytotoxicity MCF7 IC50) [nM] | IC50 [5] [nM] | cytotoxicity IC50 for all three cell lines tested (in words) [4] | times less cytotoxic than carfilzomib [4] | IC50 (RPMI 8226 cells; RPMI-8226, read-out: Cytotoxicity RPMI 8226 IC50) [nM] | IC50 [6] [nM] | IC50 [7] [nM] | IC50 [8] [nM] | IC50 (MDA-MB-231 cells; MDA-MB-231, read-out: Cytotoxicity MDA-MB-231 IC50) [nM] | IC50 ([3]; Table 3, P2/P3 analogues, ± S.D., read-out: Proteasome Inhibition T-L-like IC50) [nM]
1 | CC(C)[C@H](NC(=O)[C@@H]1OC(=O)[C@H]1C1CC1)C(=O)N[C@H](C(=O)OCc1ccccc1)C(C)C [Compound 9a, Benzyl ((2R,3S)-3-cyclopropyl-4-oxooxetane-2-carbonyl)-L-valyl-L-valinate] | > 100000 | 12.2 ± 5.6 | lowest performance | 72000 ± 13800 | > 100000 | 2480 ± 433 |  |  |  |  |  |  |  |  |  |  |  |  | 
2 | CC[C@H](C)[C@@H]1C(=O)O[C@H]1C(=O)NCC(=O)N[C@H](C(=O)OCc1ccccc1)C(C)C [Compound 10a, Benzyl ((2R,3S)-3-((S)-sec-butyl)-4-oxooxetane-2-carbonyl)glycyl-L-valinate] | ~4000 |  |  | 840 ± 429 | 952 ± 262 |  | 3.8 ± 1.4 | > 100 | 256 ± 72 |  |  |  |  |  |  |  |  |  | 
3 | CC[C@H](C)[C@@H]1C(=O)O[C@H]1C(=O)N[C@H](C(=O)N[C@@H](COCc1ccccc1)C(=O)OCc1ccccc1)C(C)C [Compound 10k, Benzyl O-benzyl-N-(((2R,3S)-3-((S)-sec-butyl)-4-oxooxetane-2-carbonyl)-L-valyl)-L-serinate] | 284 ± 132 |  |  | 50 ± 28 | 90 ± 51 |  |  |  |  | 178 ± 23.4 | 24.5 ± 3.9 | midrange nanomolar | about 10 times | 40.5 ± 1.66 | 9.1 ± 2.7 | > 50000 | 17800 ± 2070 | 75.6 ± 3.49 | 1340 ± 334
